Results from patent US8431588B2, “Cyclopropyl polymerase inhibitors” (Janssen Products, LP, priority 2008, dated 2013).
Like-named read-outs stand apart in the source and are kept apart here.

Tests used:
[1] = tested on: HCV type 1b replicon in Huh-7 luc/neo (Huh-Luc) cells; test: HCV replicon assay (Huh-Luc, luciferase readout); type: cell-based; settings: Hepatitis C virus, Huh-7, 72 h, read-out: EC50 (replicon)
Excerpt: The compounds of formula I were examined for activity in the inhibition of HCV RNA replication in a cellular assay aimed at identifying compounds that inhibit a HCV functional cellular replicating cell line, also known as HCV replicons. The cellular assay was based on a bicistronic expression construct, as described by Lohmann et al. (1999), Science vol. 285 pp. 110-113 with modifications described by Krieger et al. (2001), Journal of Virology 75: 4614-4624, in a multi-target screening strategy.
The assay utilized the stably transfected cell line Huh-7 luc/neo (hereafter referred to as Huh-Luc). This cell line harbors an RNA encoding a bicistronic expression construct comprising the wild type NS3-NS5B regions of HCV type 1b translated from an Internal Ribosome Entry Site (IRES) from encephalomyocarditis virus (EMCV), preceded by a reporter portion (FfL-luciferase), and a selectable marker portion (neo^R, neomycine phosphotransferase). The construct is bordered by 5′ and 3′ NTRs (non-translated regions) from HCV type 1b. Continued culture of the replicon cells in the presence of G418 (neo^R) is dependent on the replication of the HCV RNA. The stably transfected replicon cells that express HCV RNA, which replicates autonomously and to high levels, encoding inter alia luciferase, were used for screening the antiviral compounds.
The replicon cells were plated in 384 well plates in the presence of the test and control compounds which were added in various concentrations. Following an incubation of three days, HCV replication was measured by assaying luciferase activity (using standard luciferase assay substrates and reagents and a Perkin Elmer ViewLux™ ultraHTS microplate imager). Replicon cells in the control cultures have high luciferase expression in the absence of any inhibitor. The inhibitory activity of the compound on luciferase activity was monitored on the Huh-Luc cells, enabling a dose-response curve for each test compound. EC50 values were then calculated, which value represents the amount of the compound required to decrease the level of detected luciferase activity by 50%, or more specifically, the ability of the genetically linked HCV replicon RNA to replicate.

[2] = Cellular toxicity in the Huh7-CMV-Luc replicon assay; type: cell-based; settings: human; Huh7-CMV-Luc cells, three days incubation, Luc activity
Protocol: Cellular toxicity was determined in the Huh7-CMV-Luc replicon assay. Replicon cells (2500 cells/well), stably transformed with a luciferase reporter gene under control of the cytomegalovirus (CMV) constitutive promotor, were cultured in the presence or absence of test compound concentrations. After three days of incubation at 37° C. in a humidified 5% CO2 atmosphere, cell proliferation was quantified by measuring the Luc activity, and expressed as CC50 values (cytotoxicity, 50% inhibitory concentration of cell growth). Tests were performed in 384-well plates.

[3] = tested on: wild type human immunodeficiency virus (HIV) strain IIIB; test: microbe, parasite or virus in culture; type: cell-based, HIV-1; settings: read-out: EC50 (IIIB)
Protocol: Compounds of the invention were tested for their potency against wild type human immunodeficiency virus (HIV). Antiviral activity was evaluated using a cellular assay performed according to the following procedure. The human T-cell line MT4 was engineered with Green Fluorescent Protein (GFP) and a HIV-specific promoter, HIV-1 long terminal repeat (LTR). This cell line, designated MT4 LTR-EGFP, can be used for the in vitro evaluation of anti-HIV activity of investigational compounds. In HIV-1 infected cells, the Tat protein is produced, which upregulates the LTR promotor and eventually leads to stimulation of the GFP reporter production, allowing to measure ongoing HIV-infection fluorometrically. Effective concentration values such as 50% effective concentration (EC50) can be determined and are usually expressed in μM. An EC50 value is defined as the concentration of test compound that reduces the fluorescence of HIV-infected cells by 50%. Monitoring of HIV-1 infection was done using a scanning microscope. Image analysis allows very sensitive detection of viral infection. Measurements were done before cell necrosis, which usually takes place about five days after infection, in particular measurements were performed three days after infection. The column IIIB in the table list the EC50 values against the wild type strain IIIB.

[4] = Huh-Luc replicon cells, three days incubation, luciferase activity
[5] = Human immunodeficiency virus 1, 72 h, wild type strain IIIB, MT4 LTR-EGFP cells, three days after infection

## Nc1ccn([C@@H]2O[C@H](CO)[C@@H](O)C23CC3)c(=O)n1 [Compound 1, 4-Amino-1-(7-hydroxy-6-hydroxymethyl-5-oxa-spiro[2.4]hept-4-yl)-1H-pyrimidin-2-one]
[1]; [4]
  EC50: 8.4 µM
[2]
  CC50 at 3 days: > 98 µM
[3]; [5]
  EC50: > 98 µM

## C[C@H](NP(=O)(OC[C@H]1O[C@@H](n2ccc(N)nc2=O)C2(CC2)[C@@H]1O)Oc1ccccc1)C(=O)OCc1ccccc1 (stereo partly drawn) [Compound 2a, (2S)-benzyl 2-((((4R,6R,7S)-4-(4-amino-2-oxopyrimidin-1(2H)-yl)-7-hydroxy-5-oxaspiro[2.4]heptan-6-yl)methoxy)((phenoxy)phosphoryl)amino)propanoate]
[1]; [4]
  EC50: 15.3 µM
[2]
  CC50 at 3 days: > 98 µM
[3]; [5]
  EC50: > 98 µM

## C[C@H](NP(=O)(OC[C@H]1O[C@@H](n2ccc(N)nc2=O)C2(CC2)[C@@H]1O)Oc1ccc(Cl)cc1)C(=O)OCc1ccccc1 (stereo partly drawn) [Compound 2b, (2S)-benzyl 2-((((4R,6R,7S)-4-(4-amino-2-oxopyrimidin-1(2H)-yl)-7-hydroxy-5-oxaspiro[2.4]heptan-6-yl)methoxy)(4-chlorophenoxy)phosphorylamino)propanoate]
[1]; [4]
  EC50: 26.3 µM
[2]
  CC50 at 3 days: > 98 µM
[3]; [5]
  EC50: > 98 µM

## CCOC(=O)[C@H](Cc1ccccc1)NP(=O)(OC[C@H]1O[C@@H](n2ccc(N)nc2=O)C2(CC2)[C@@H]1O)Oc1ccccc1 (stereo partly drawn) [Compound 2c, (2S)-ethyl 2-((((4R,6R,7S)-4-(4-amino-2-oxopyrimidin-1(2H)-yl)-7-hydroxy-5-oxaspiro[2.4]heptan-6-yl)methoxy)(phenoxy)phosphorylamino)-3-phenylpropanoate]
[1]
  EC50: ≥ 98 µM
[2]
  CC50 at 3 days: > 98 µM
[3]; [5]
  EC50: > 98 µM

## COC(=O)[C@H](C)NP(=O)(OC[C@H]1O[C@@H](n2ccc(N)nc2=O)C2(CC2)[C@@H]1O)Oc1ccccc1 (stereo partly drawn) [Compound 2d, (2S)-methyl 2-((((4R,6R,7S)-4-(4-amino-2-oxopyrimidin-1(2H)-yl)-7-hydroxy-5-oxaspiro[2.4]heptan-6-yl)methoxy)(phenoxy)phosphorylamino)propanoate]
[1]; [4]
  EC50: 63.1 µM
[2]
  CC50 at 3 days: > 98 µM
[3]; [5]
  EC50: > 98 µM

## CC(C)C(=O)OC[C@H]1O[C@@H](n2ccc(N)nc2=O)C2(CC2)[C@@H]1OC(=O)C(C)C [Compound 3, (4R,6R,7S)-4-(4-amino-2-oxopyrimidin-1(2H)-yl)-6-(isobutyryl-oxymethyl)-5-oxaspiro[2.4]heptan-7-yl isobutyrate]
[1]; [4]
  EC50: 27.2 µM
[2]
  CC50 at 3 days: > 98 µM
[3]; [5]
  EC50: > 98 µM

## CC(C)C(=O)OC[C@H]1O[C@@H](n2ccc(N)nc2=O)C2(CC2)[C@@H]1O [Compound 4, ((4R,6R,7S)-4-(4-amino-2-oxopyrimidin-1(2H)-yl)-7-hydroxy-5-oxaspiro[2.4]heptan-6-yl)methyl isobutyrate]
[1]; [4]
  EC50: 9.2 µM
[2]
  CC50 at 3 days: > 98 µM
[3]; Human immunodeficiency virus 1, IIIB, 72 h
  EC50: > 98 µM

## CC(C)C(=O)O[C@@H]1[C@@H](CO)O[C@@H](n2ccc(N)nc2=O)C12CC2 [Compound 5, (4R,6R,7S)-4-(4-amino-2-oxopyrimidin-1(2H)-yl)-6-(hydroxymethyl)-5-oxaspiro[2.4]heptan-7-yl isobutyrate]
[1]; [4]
  EC50: 42.5 µM
[2]
  CC50 at 3 days: > 98 µM
[3]; [5]
  EC50: > 98 µM
